Read-outs that look alike come from different tables or passages of the source.

The conditions of data set [1]: infusion times 3 to 24 hours; cited from earlier work.
Data set [2] concerns breast cancer. Conditions: paclitaxel 135 mg/m^2 in combination with cisplatin 75 mg/m^2; cited from earlier work.
Data set [3] concerns breast cancer. Conditions: cited from earlier work.
The next data set relates to ovarian cancer. Conditions: cited from earlier work.
A further data set deals with mammalian cells. Conditions: 50 nM paclitaxel concentration; cited from earlier work.

Text for ovarian carcinoma: Patients with taxane-resistant ovarian cancer are defined as having (1) progression of disease while receiving taxane therapy; (2) progression within 12 months of taxane therapy; (3) persistent stable disease after six courses of taxane therapy; or (4) persistent stable disease with at least CA-125 rising measurements (to a value of ≧100).
Patients without liver metastases and who had mild liver function abnormalities (SGOT and alkaline phosphatase less than 1.5 times upper normal limit) and a normal bilirubin received a total dose of 140 mg/m^2.
Each mL of sterile solution contains 527 mg polyoxyethylated castor oil (Cremaphor® EL) and 49.7% (w/v) absolute alcohol.
The in-line filter was then connected to the subjects central access device.
The procedure was repeated three more times, for a total 96 hour continuous infusion. The final dose was 140 mg/m^2/96 hours.
Complete response (CR): Complete disappearance of all clinical evidence of disease persisting through the next evaluation period at 6 weeks. Evaluable lesions must have disappeared completely.
Partial Response (PR): At least 50% decrease in the sum of the products of the diameters of all measurable lesions persisting through the next evaluation period at six weeks. In addition, concomitant evaluable lesions must show no evidence of progressive disease or new lesions.
Progressive Disease (PD): 25% or greater progression in the sum of the products of the diameter of any measurable lesion(s) over one cycle of chemotherapy or the appearance of any new lesion consistent with metastatic disease.

Turning to `CC(=O)O[C@H]1C(=O)[C@@]2(C)[C@H]([C@H](OC(=O)c3ccccc3)[C@]3(O)C[C@H](OC(=O)[C@H](O)[C@@H](NC(=O)c4ccccc4)c4ccccc4)C(C)=C1C3(C)C)[C@]1(OC(C)=O)CO[C@@H]1C[C@@H]2O` [paclitaxel, 5β, 20-epoxy-1 ,2α4,7β10β13α-hexahydroxytax-11-en-9-one 4, 10-diacetate 2-benzoate 12-ester with (2R,3S)-Nbenzoyl-3-phenylisososerine], the dose limiting toxicity entry in data set [1] is given as “reversible myelosuppression”. In addition, the response rate in the data set with breast cancer [2] is listed as 79%; with ovarian carcinoma (partial responses, 14 patients, 96 hour infusion) it was 21%; in the data set with breast cancer [3] (doses of 250 mg/m^2 with G-CSF, single agent), 36-71%; in the data set on breast cancer [3] (doses of 135 to 175 mg/m^2, single agent) it was 13-37%; in the data set on ovarian cancer (135 mg/m^2 every three weeks), 15%; in the data set on ovarian cancer (175 mg/m^2 every three weeks), 20%. The compound also had a partial responses in the data set on ovarian carcinoma (of 14 patients, 140 mg/m^2 over 96 hour infusion every 21 days) of 3. Moreover, the “patients with stable disease” value with ovarian carcinoma (of 14 patients, 96 hour infusion) was “One”. The overall response rate in the data set on ovarian carcinoma (partial responses plus stable disease, 14 patients, 96 hour infusion) is given as 29%. For the same compound, the “time to tumor progression” value in the data set on ovarian cancer (higher dose (175 mg/m^2)) was 19 weeks; in the data set on ovarian cancer (lower dose (135 mg/m^2)), 14 weeks. In addition, the “effect on microtubules and cells” value in the data set with mammalian cells is “significant increase in microtubule number”.

Values taken from patent US6334445B1, “Methods and compositions for treatment of ovarian cancer” (Baker Norton Pharmaceuticals, Inc., priority 1997, dated 2002).
